Source: article PMC13129453, “Targeting the US21 viroporin of human cytomegalovirus by calcium channel blockers as a new antiviral strategy” (Current Research in Microbial Sciences, 2026)
Where “and” joins values, the source holds several entries; their conditions need not be identical. Equal entries are not always repeated. Where two headings read alike, the source gives them in different places.

Assays:
[1] = test system: HCMV TRwt; test: Focus-forming reduction assay (FFRA), HCMV TRwt; assay type: cell-based, Human cytomegalovirus; conditions: for EC50 / EC90: Human betaherpesvirus 5, hT-HFF, FFRA, 96 h p.i.; for SI: hT-HFF, ratio between CC50 and EC50
Protocol: (§1) The antiviral activity of CCBs was evaluated against VR1814 and TRwt by means of the focus-forming reduction assay (FFRA) procedure. Briefly, hT-HFFs were seeded on 96-well plates (20,000 cells/well) and, after 24 h, treated with different concentrations of compounds (maximum concentration 20 μM, or 100 μM for felodipine) 1 h prior to and during viral infection (50 PFU/well). Control HCMV-infected cells were exposed to vehicle DMSO at 0.04%, or 0.2% for felodipine). After virus adsorption (2 h at 37 °C), virus inoculum was removed and infected cell cultures were incubated in medium containing the corresponding compounds plus 1.2% (w/v) methylcellulose (Merck) and 5% (v/v) FBS. At 96 h post infection (p.i.), cell monolayers were fixed and subjected to indirect immunoperoxidase staining (IPA) with the HCMV IEA mAb (diluted 1:150). Viral foci were microscopically counted, and the mean plaque counts for each drug concentration were expressed as a percentage of the mean plaque counts of control virus (DMSO). GraphPad Prism software was used to determine the concentration of compounds producing 50 and 90% reductions in viral titers (EC50 and EC90).

[2] = test system: HCMV TRUS21stop; test: microbe, parasite or virus in culture; assay type: cell-based, Human cytomegalovirus
[3] = test system: HCMV VR1814; test: Focus-forming reduction assay (FFRA), HCMV VR1814; assay type: cell-based, Human cytomegalovirus; conditions: hT-HFF; for EC50 / EC90: Human betaherpesvirus 5, VR1814, FFRA, 96 h p.i.; for SI: VR1814, ratio between CC50 and EC50
Protocol: as §1

[4] = Cell cytotoxicity assay (MTT), hT-HFFs; assay type: cell-based; conditions: human; for CC50 at 5 days: hT-HFFs, hT-HFF, MTT, five days of treatment
Protocol: (§2) The effect of test compounds on cell viability was determined in hT-HFFs, HMVECs and T-REx-U2OS-US21-HA cells seeded in p96-well (12,000 cells/well). After 24 h, cells were treated with compounds at concentrations starting from 300 μM and then serially diluted in culture medium, or with DMSO alone starting from 0.6% v/v as the vehicle control. For cell viability of drug combination studies, the control with DMSO was from 0.07%.

[5] = Cell cytotoxicity assay (MTT), HMVECs; assay type: cell-based; conditions: human; for CC50 at 5 days: HMVECs, HMVEC, MTT, five days of treatment
Protocol: as §2

[6] = target: T1, pUS21 (Human cytomegalovirus, UniProt P09723); assay type: cell-based
T1 construct: expressed in transfected cells; host or cells: T-REx-U2OS-US21-HA (human osteosarcoma U2OS, stably transfected, tetracycline-inducible)
Protocol: Calcium measurement was determined applying the Ca^2+ add back protocol as previously described ([Luganini et al., 2023]). Briefly, non-induced (NI) or induced (I) T-REx-U2OS-US21-HA cell lines for 48 h with tetracycline, plated at a density of 5000 cells/cm^2 on glass coverslips, were loaded (45 min at 37 °C) with 2 μM Fura-2 AM (Invitrogen, Waltham, MA, USA) and excited at two alternating wavelengths: 340 and 380 nm. Fluorescence emission was captured using a Nikon Eclipse TE-2000S inverted microscope equipped with the MetaFluor Imaging System (Molecular Devices, San Jose, CA, USA). Ratiometric cytosolic Ca^2+ ([Ca^2+]c) quantification was expressed as the ratio (R) of fluorescence emitted at 510 nm for the two excitation wavelengths. Images were acquired every 3 s. Ca^2+ imaging analysis was conducted by peak amplitude quantification using Clampfit 11.1 (Axon pClamp, Molecular Devices). Responses with a ΔR340/380 > 0.05 were taken in account. To assess the ER Ca^2+ content in T-REx-U2OS-US21-HA NI or I cells, depletion of the ER Ca^2+ pool was triggered using IP3mix in the absence of extracellular Ca^2+ (0 Ca^2+). IP3mix consisted of thapsigargin (2 μM), histamine (100 μM), and ATP (100 μM). The experiments were performed in acute treatment in presence of CCBs or DMSO, as control at 0.01%.

[7] = test system: HCMV TRwt; test: Focus-forming reduction assay (FFRA), HCMV TRwt; assay type: cell-based, Human cytomegalovirus
[8] = test system: HCMV VR1814; test: Focus-forming reduction assay (FFRA), HCMV VR1814; assay type: cell-based, Human cytomegalovirus
[9] = Human betaherpesvirus 5, hT-HFF, TRUS21stop, FFRA, 96 h p.i., read-out: EC50
[10] = Human betaherpesvirus 5, hT-HFF, TRUS21stop, FFRA, 96 h p.i., read-out: EC90
[11] = hT-HFF, TRUS21stop, ratio between CC50 and EC50
[12] = HMVEC, TRwt, ratio between CC50 and EC50
[13] = Human betaherpesvirus 5, HMVEC, TRwt, FFRA, 96 h p.i., read-out: EC50
[14] = Human betaherpesvirus 5, HMVEC, TRwt, FFRA, 96 h p.i., read-out: EC90
[15] = HMVEC, VR1814, ratio between CC50 and EC50
[16] = Human betaherpesvirus 5, HMVEC, VR1814, FFRA, 96 h p.i., read-out: EC50
[17] = Human betaherpesvirus 5, HMVEC, VR1814, FFRA, 96 h p.i., read-out: EC90
[18] = Human betaherpesvirus 5, HMVEC, 96 h

T1 sequence (P09723 whole entry): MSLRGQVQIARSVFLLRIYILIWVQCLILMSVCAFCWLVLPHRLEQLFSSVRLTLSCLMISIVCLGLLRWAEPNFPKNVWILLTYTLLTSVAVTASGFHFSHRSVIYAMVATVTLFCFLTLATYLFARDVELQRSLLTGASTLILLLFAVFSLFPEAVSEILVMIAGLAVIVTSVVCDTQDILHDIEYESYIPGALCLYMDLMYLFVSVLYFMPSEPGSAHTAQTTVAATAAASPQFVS

Structure (SMILES) | EC50 [1] | EC90 [1] | SI [1] | EC50 [2, 9] | EC90 [2, 10] | SI [2, 11] | EC50 [3] | EC90 [3] | SI [3] | CC50 at 5 days [4] | CC50 at 5 days [5] | Ca2+-conducting activity of pUS21 (Ca2+ release from the ER after IP3mix) [6] | SI [7, 12] | EC50 [7, 13] | EC90 [7, 14] | SI [8, 15] | EC50 [8, 16] | EC90 [8, 17] | other results
CC1=C(C(=O)OC(C)C)C(c2cccc([N+](=O)[O-])c2)C(C(=O)OC2CN(C(c3ccccc3)c3ccccc3)C2)=C(N)N1 (stereo not shown) [Azelnidipine, azelnidipine] | 1.53 ± 0.32 µM | 12.1 ± 0.27 µM | 125.50 | 5.46 ± 0.17 µM | 19.36 ± 0.06 µM | 35.16 | 2.96 ± 0.53 µM | 14.7 ± 0.39 µM | 64.87 | 192 ± 20.5 µM | 341 ± 20.1 µM | can hamper the Ca^2+-mobilizing activity of pUS21 | 160.87 | 2.12 ± 0.14 µM | 9.53 ± 0.76 µM | 110.37 | 3.09 ± 0.46 µM | 19 ± 0.27 µM | 
CC1=C(C(=O)OCCN(Cc2ccccc2)c2ccccc2)C(c2cccc([N+](=O)[O-])c2)C(P2(=O)OCC(C)(C)CO2)=C(C)N1 (stereo not shown) [Efonidipine, efonidipine] | 3.18 ± 0.07 µM | 14.2 ± 1.67 µM | 106.82 | 7.11 ± 0.05 µM | > 20 µM | 47.77 | 3.04 ± 0.23 µM | 13.6 ± 2.46 µM | 111.74 | 340 ± 20.1 µM | 295 ± 11 µM | can hamper the Ca^2+-mobilizing activity of pUS21 | 83.21 | 3.55 ± 0.13 µM | 6.58 ± 0.91 µM | 82.28 | 3.59 ± 0.67 µM | 19.5 ± 0.72 µM | 
COC(=O)C1=C(C)NC(C)=C(C(=O)OC(C)(C)CN(C)CCC(c2ccccc2)c2ccccc2)C1c1cccc([N+](=O)[O-])c1 (stereo not shown) [Lercanidipine, lercanidipine] | 3.08 ± 0.28 µM | 12.7 ± 1.6 µM | 41.08 | 7.6 ± 0.11 µM | 19.9 ± 0.5 µM | 16.65 | 3.12 ± 0.43 µM | 12.7 ± 1.66 µM | 40.55 | 127 ± 18.8 µM | 286 ± 19.1 µM | can hamper the Ca^2+-mobilizing activity of pUS21 | 86.09 | 3.32 ± 0.38 µM | 5.9 ± 0.11 µM | 105.86 | 2.7 ± 0.54 µM | 14.5 ± 0.19 µM | 
CC(C)Nc1nc2cc(Cl)c(Cl)cc2n1[C@H]1O[C@@H](CO)[C@H](O)[C@@H]1O [MBV, Maribavir] |  |  |  |  |  |  |  |  |  |  |  |  |  | 4.74 µM |  |  |  |  | 
COC(=O)C1=C(C)NC(C)=C(C(=O)OCCCN2CCC(c3ccccc3)(c3ccccc3)CC2)[C@H]1c1cccc([N+](=O)[O-])c1 [Niguldipine, niguldipine] |  |  |  |  |  |  |  |  |  |  |  | can hamper the Ca^2+-mobilizing activity of pUS21 |  |  |  |  |  |  | SI [2]: 68.70; EC50 ([2]; Human betaherpesvirus 5, 96 h): 3.51 ± 0.22 µM; EC90 ([2]; Human betaherpesvirus 5, 96 h): 13 ± 0.63 µM; CC50 [4]: 241 ± 23.9 µM; CC50 [5]: 205 ± 23.3 µM; SI [7]: 191.39 and 178.40; EC50 ([7]; Human betaherpesvirus 5, 96 h): 1.26 ± 0.31 µM; EC90 ([7]; Human betaherpesvirus 5, 96 h): 7.33 ± 2.54 µM; EC50 [7, 18]: 1.15 ± 0.29 µM; EC90 [7, 18]: 7.24 ± 0.59 µM; SI [8]: 67.93 and 76.31; EC50 ([8]; Human betaherpesvirus 5, 96 h): 3.16 ± 0.64 µM; EC90 ([8]; Human betaherpesvirus 5, 96 h): 15 ± 0.48 µM; EC50 [8, 18]: 3.02 ± 0.16 µM; EC90 [8, 18]: 12.7 ± 0.16 µM
CCOC(=O)C1=C(C)NC(C)=C(C(=O)OC)C1c1cccc(Cl)c1Cl (stereo not shown) [felodipine] | 19.4 µM |  |  | 19.4 µM |  |  |  |  |  |  |  |  |  |  |  |  |  |  | 
